The values that follow come from PubChem BioAssay AID256 (DTP/NCI, 2004).

Values joined by “and” are separate entries in the source; they are usually repeats but may differ in a detail not shown here. Identical values can stand only once. Toxic doses and inconclusive results are not listed.

The subject of the experiment is CD2F1 mice, L1210 leukemia ip, survival T/C. As to the kind of experiment: NCI In Vivo Anticancer Drug Screen. Data for tumor model L1210 Leukemia (intraperitoneal) in CD2F1 (CDF1) mice. As to conditions: higher = longer survival. A digest of the protocol: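 Activity against a transplanted murine tumor was judged by comparing the compound group with a vehicle group. The outcome in the treated animals was divided by that in the controls.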

[1] abbreviates: endpoint: mean survival time, dose: 100.0 mg/kg/injection, schedule: Q04DX002 (ip), vehicle: saline with Tween-80.
Where [2] appears, read: endpoint: mean survival time, dose: 200.0 mg/kg/injection, schedule: Q04DX002 (ip), vehicle: saline with Tween-80.
Where [3] appears, read: endpoint: mean survival time, dose: 400.0 mg/kg/injection, schedule: Q04DX002 (ip), vehicle: saline with Tween-80.
Where [4] appears, read: endpoint: mean survival time, dose: 100.0 mg/kg/injection, schedule: Q04DX003 (ip), vehicle: saline with Tween-80.
[5] abbreviates: endpoint: mean survival time, dose: 200.0 mg/kg/injection, schedule: Q04DX003 (ip), vehicle: saline with Tween-80.
Where [6] appears, read: endpoint: mean survival time, dose: 400.0 mg/kg/injection, schedule: Q04DX003 (ip), vehicle: saline with Tween-80.
Where [7] appears, read: endpoint: mean survival time, dose: 50.0 mg/kg/injection, schedule: Q01DX009 (ip), vehicle: saline with Tween-80.
Setting [8] is: endpoint: mean survival time, dose: 100.0 mg/kg/injection, schedule: Q01DX009 (ip), vehicle: saline with Tween-80.
The mark [9] stands for this setting: endpoint: mean survival time, dose: 200.0 mg/kg/injection, schedule: Q01DX009 (ip), vehicle: saline with Tween-80.
Where [10] appears, read: endpoint: mean survival time, dose: 75.0 mg/kg/injection, schedule: Q01DX001 (ip), vehicle: saline.
Where [11] appears, read: endpoint: mean survival time, dose: 12.5 mg/kg/injection, schedule: Q01DX009 (ip), vehicle: water.
Where [12] appears, read: endpoint: mean survival time, dose: 25.0 mg/kg/injection, schedule: Q01DX009 (ip), vehicle: water.
Where [13] appears, read: endpoint: mean survival time, dose: 50.0 mg/kg/injection, schedule: Q01DX009 (ip), vehicle: water.

Take `Nc1nc2c(nc(N3CCCC3)n2C2OC(CO)C(O)C2O)c(=O)[nH]1` (stereo not drawn): the T/C reads like this: (endpoint: mean survival time, dose: 12.5 mg/kg/injection, schedule: Q01DX005 (ip), vehicle: distilled water + Tween-80) 100 % of control; (endpoint: mean survival time, dose: 25.0 mg/kg/injection, schedule: Q01DX005 (ip), vehicle: distilled water + Tween-80) 102 % of control; (endpoint: mean survival time, dose: 50.0 mg/kg/injection, schedule: Q01DX005 (ip), vehicle: distilled water + Tween-80) 98 % of control; (endpoint: mean survival time, dose: 100.0 mg/kg/injection, schedule: Q01DX005 (ip), vehicle: distilled water + Tween-80) 100 % of control; (endpoint: mean survival time, dose: 200.0 mg/kg/injection, schedule: Q01DX005 (ip), vehicle: distilled water + Tween-80) 100 % of control.

Consider `O=[N+]([O-])c1ccc(C2=CSc3ccccc3N2)cc1`, for which the T/C by setting is: under setting [1], 104 % of control; under setting [2], 108 % of control; under setting [3], 104 % of control.

For the compound `CCN(CCS)Cc1ccccc1`, the T/C under setting [4] is 98 % of control.

In the case of `CN(C)c1ccc2c(N(C)C)cc(N(C)C)nc2c1`, the T/C runs as follows: (endpoint: mean survival time, dose: 0.78 mg/kg/injection, schedule: Q01DX009 (ip), vehicle: Klucel (hydroxypropylcellulose) (HPC)) 106 % of control; (endpoint: mean survival time, dose: 1.56 mg/kg/injection, schedule: Q01DX009 (ip), vehicle: Klucel (hydroxypropylcellulose) (HPC)) 102 % of control; (endpoint: mean survival time, dose: 3.12 mg/kg/injection, schedule: Q01DX009 (ip), vehicle: Klucel (hydroxypropylcellulose) (HPC)) 104 % of control; (endpoint: mean survival time, dose: 6.25 mg/kg/injection, schedule: Q01DX009 (ip), vehicle: Klucel (hydroxypropylcellulose) (HPC)) 98 % of control; (endpoint: mean survival time, dose: 12.5 mg/kg/injection, schedule: Q01DX009 (ip), vehicle: Klucel (hydroxypropylcellulose) (HPC)) 113 % of control and 96 % of control; (endpoint: mean survival time, dose: 25.0 mg/kg/injection, schedule: Q01DX009 (ip), vehicle: Klucel (hydroxypropylcellulose) (HPC)) 88 % of control.

Turning to `CC1=CC(=O)C(C(=O)CC(O)(C(F)(F)F)C(F)(F)F)C(=O)O1` (stereo not drawn), the T/C was 98 % of control (endpoint: mean survival time, dose: 100.0 mg/kg/injection, schedule: Q01DX001 (ip), vehicle: saline with Tween-80); 104 % of control (endpoint: mean survival time, dose: 200.0 mg/kg/injection, schedule: Q01DX001 (ip), vehicle: saline with Tween-80); 95 % of control (endpoint: mean survival time, dose: 400.0 mg/kg/injection, schedule: Q01DX001 (ip), vehicle: saline with Tween-80).

Take `CCOCC(C(=O)OCC)C(=O)OCC`: the T/C under setting [4] is 104 % of control, the T/C under setting [5] was 102 % of control and the T/C under setting [6] was 104 % of control.

As to `COc1ccc(C(Br)C(C)Br)cc1` (stereo not drawn), the T/C was 97 % of control under setting [7]; 94 % of control under setting [8]; 98 % of control under setting [4]; 97 % of control under setting [9]; 98 % of control under setting [5].

With `CC12CCC3C(CC=C4CC(OC(=N)N)CCC43C)C1CCC2=O` (stereo not drawn), the T/C reads like this: under setting [10], 98 % of control; (endpoint: mean survival time, dose: 150.0 mg/kg/injection, schedule: Q01DX001 (ip), vehicle: saline) 101 % of control.

For `ClC1CN2CCC1CC2` (stereo not drawn), the T/C (endpoint: mean survival time, dose: 12.5 mg/kg/injection, schedule: Q01DX009 (ip), vehicle: saline) is 95 % of control; the T/C (endpoint: mean survival time, dose: 25.0 mg/kg/injection, schedule: Q01DX009 (ip), vehicle: saline) is 90 % of control and 105 % of control; the T/C (endpoint: mean survival time, dose: 50.0 mg/kg/injection, schedule: Q01DX009 (ip), vehicle: saline) is 93 % of control and 94 % of control.

As to `CC1(C)C/C(=C\c2cc(O)ccc2[N+](=O)[O-])C(=O)c2ccccc21`, the T/C runs as follows: under setting [8], 97 % of control; under setting [4], 101 % of control; under setting [9], 94 % of control; under setting [5], 106 % of control; (endpoint: mean survival time, dose: 400.0 mg/kg/injection, schedule: Q01DX009 (ip), vehicle: saline with Tween-80) 97 % of control; under setting [6], 103 % of control.

Regarding `NC(=O)C(CCCCC(C(N)=O)C(N)=O)C(N)=O`, the T/C was 96 % of control under setting [1], 108 % of control under setting [2] and 108 % of control under setting [3].

Consider `Nc1nc(N)c(NC=O)c(N)n1`, for which the T/C is 101 % of control under setting [11]; 101 % of control under setting [12]; 106 % of control under setting [13]; 103 % of control (endpoint: mean survival time, dose: 100.0 mg/kg/injection, schedule: Q01DX009 (ip), vehicle: water); 103 % of control (endpoint: mean survival time, dose: 200.0 mg/kg/injection, schedule: Q01DX009 (ip), vehicle: water).

`O=NN(CCOS(=O)(=O)c1ccc([N+](=O)[O-])cc1)C(=O)NC1CCCCC1`: the T/C was 106 % of control (endpoint: mean survival time, dose: 100.0 mg/kg/injection, schedule: Q01DX001 (ip), vehicle: other); 153 % of control (endpoint: mean survival time, dose: 200.0 mg/kg/injection, schedule: Q01DX001 (ip), vehicle: other); 472 % of control (endpoint: mean survival time, dose: 400.0 mg/kg/injection, schedule: Q01DX001 (ip), vehicle: other).

With `FC1(F)C(Cl)=[C]([Hg][C]2=C(Cl)C(F)(F)C(F)(F)C2(F)F)C(F)(F)C1(F)F`, under setting [10], the T/C is 98 % of control.

On to `N/N=C(\C(=N\N)c1ccccc1)c1ccccc1`, for which the T/C under setting [4] was 95 % of control, the T/C under setting [5] was 93 % of control and the T/C under setting [6] was 89 % of control.

`Oc1cccc2ccccc12`: the T/C is 95 % of control (endpoint: median survival time, dose: 50.0 mg/kg/injection, schedule: Q01DX005 (ip), vehicle: water); 95 % of control (endpoint: median survival time, dose: 100.0 mg/kg/injection, schedule: Q01DX005 (ip), vehicle: water); 101 % of control (endpoint: median survival time, dose: 200.0 mg/kg/injection, schedule: Q01DX005 (ip), vehicle: water); 93 % of control (endpoint: median survival time, dose: 400.0 mg/kg/injection, schedule: Q01DX005 (ip), vehicle: water).

`O=Cc1cccc(OCc2ccc([N+](=O)[O-])cc2)c1`: the T/C is 105 % of control (endpoint: mean survival time, dose: 50.0 mg/kg/injection, schedule: Q01DX009 (ip), vehicle: Klucel (hydroxypropylcellulose) (HPC)); 108 % of control (endpoint: mean survival time, dose: 100.0 mg/kg/injection, schedule: Q01DX009 (ip), vehicle: Klucel (hydroxypropylcellulose) (HPC)); 97 % of control (endpoint: mean survival time, dose: 200.0 mg/kg/injection, schedule: Q01DX009 (ip), vehicle: Klucel (hydroxypropylcellulose) (HPC)).

Take `CN1NC2(O)C(=O)N(C3CCCCC3)CC2C1c1ccccc1` (stereo not drawn): the T/C by setting is: under setting [4], 86 % of control; under setting [5], 93 % of control; under setting [6], 101 % of control.

Turning to `Oc1ccc(I)c2cccnc12`, the T/C is 98 % of control (endpoint: mean survival time, dose: 12.5 mg/kg/injection, schedule: Q01DX009 (ip), vehicle: saline with Tween-80); 98 % of control (endpoint: mean survival time, dose: 25.0 mg/kg/injection, schedule: Q01DX009 (ip), vehicle: saline with Tween-80); 97 % of control (endpoint: mean survival time, dose: 45.0 mg/kg/injection, schedule: Q01DX009 (ip), vehicle: saline); 98 % of control under setting [7]; 108 % of control (endpoint: mean survival time, dose: 90.0 mg/kg/injection, schedule: Q01DX009 (ip), vehicle: saline); 98 % of control under setting [8]. Also, the T/C (endpoint: mean survival time, dose: 180.0 mg/kg/injection, schedule: Q01DX009 (ip), vehicle: saline) was 112 % of control and the T/C under setting [9] was 104 % of control.

In the case of `CCC(/C=C/C(C)C1CCC2C3CC=C4CC(O)CCC4(C)C3CCC12C)C(C)C` (stereo not drawn) (tested in a mixture with another compound), the T/C is 97 % of control (endpoint: mean survival time, dose: 12.5 mg/kg/injection, schedule: Q01DX001 (ip), vehicle: water); 100 % of control under setting [11]; 97 % of control (endpoint: mean survival time, dose: 25.0 mg/kg/injection, schedule: Q01DX001 (ip), vehicle: water); 94 % of control (endpoint: mean survival time, dose: 25.0 mg/kg/injection, schedule: Q01DX009 (ip), vehicle: other); 103 % of control under setting [12]; 102 % of control (endpoint: mean survival time, dose: 50.0 mg/kg/injection, schedule: Q01DX001 (ip), vehicle: water). The T/C runs as follows: (endpoint: mean survival time, dose: 50.0 mg/kg/injection, schedule: Q01DX009 (ip), vehicle: other) 91 % of control; under setting [13], 96 % of control; under setting [8], 94 % of control; under setting [9], 89 % of control.

For `O=[N+]([O-])c1cc([N+](=O)[O-])c(Cl)s1`, the T/C runs as follows: (endpoint: mean survival time, dose: 12.5 mg/kg/injection, schedule: Q04DX003 (ip), vehicle: saline with Tween-80) 92 % of control; (endpoint: mean survival time, dose: 25.0 mg/kg/injection, schedule: Q04DX003 (ip), vehicle: saline with Tween-80) 91 % of control; (endpoint: mean survival time, dose: 50.0 mg/kg/injection, schedule: Q04DX003 (ip), vehicle: saline with Tween-80) 88 % of control.
